Laboratory results as given in patent publication US11123295B2, “Encholeated antifungal compounds for central nervous system delivery and treatment of Cryptococcus infections” (priority 2016, dated 2021).
Several values for one entry are separate records, joined by “and”; a condition that tells them apart may be missing. Equal values may be shown once.

How the values were obtained:
Format in all cases: in vivo
C. neoformans strain H99 [1] = assay: Trial 2: survival of C. neoformans-infected mice; settings: oral 250 mg/kg/day in drinking water
Experimental: Mice were inoculated with C. neoformans, strain H99/ATCC 208821, (American Type Culture Collection, Rockville, Md.), which was prepared as follows. Cells from a C. neoformans suspension were streaked onto yeast extract peptone dextrose (YPD) agar plates, which were then incubated at 37° C. for 48 hours. A well-separated colony was resuspended in 25 milliliters YPD broth containing chloramphenicol and incubated in a flask on a shaking incubator at 37° C. overnight. The cells were recovered by centrifugation at 4,000 rpm for 5 minutes and washed two times in phosphate-buffered saline (PBS) by resuspension and centrifugation. Challenge organisms were quantified by hemocytometry and were diluted with PBS to a final concentration of 10^5 organisms per milliliter. The viable count was confirmed by serially diluting the C. neoformans suspension and plating the inoculum onto YPD agar plates. […]
Survival and brain studies for each of the three trials were used to determine antifungal efficacy. Mortality was recorded throughout each of the three trials. […] The microbiological response to antifungal treatment was evaluated by concentration (in CFU per gram) of C. neoformans in brain tissue. […] Culture plates were incubated at 37° C. for 48 hours, after which the CFU were counted and the number of CFU per gram of brain tissue was calculated. […] The culture-negative plates were counted as having 0 CFU/g. […]

C. neoformans strain H99 [2] = assay: Trial 3: survival of C. neoformans-infected mice
Experimental: (§1) Animals were dosed once or twice daily as stated in Table 3 following daily body weight measurements. 5 mice were used per treatment group and a group of 5 infected, untreated mice was used as a control. […] Fluconazole, where indicated, was dosed either alone or in combination at 25 mg/kg/day in two doses by oral gavage. Agent administration began 72 hours following infection and continued once daily for 28 consecutive days.
Survival and brain studies for each of the three trials were used to determine antifungal efficacy. Mortality was recorded throughout each of the three trials. The animals were necropsied at death and the brain was removed aseptically, weighed, and homogenized in 1 milliliter sterile water. The microbiological response to antifungal treatment was evaluated by concentration (in CFU per gram) of C. neoformans in brain tissue. Serial dilutions using sterile PBS of homogenized brain were plated in duplicate onto YPD agar plates. Culture plates were incubated at 37° C. for 48 hours, after which the CFU were counted and the number of CFU per gram of brain tissue was calculated. The method was sensitive for detection of >10 CFU/g. The culture-negative plates were counted as having 0 CFU/g.

C. neoformans strain H99 [3] = assay: Trial 3: CFU per gram of brain tissue at death; settings: PO BID 25 mg/kg/day, individual mice 1-5
Experimental: as §1
Survival and brain studies for each of the three trials were used to determine antifungal efficacy. Mortality was recorded throughout each of the three trials. The animals were necropsied at death and the brain was removed aseptically, weighed, and homogenized in 1 milliliter sterile water. The microbiological response to antifungal treatment was evaluated by concentration (in CFU per gram) of C. neoformans in brain tissue. Serial dilutions using sterile PBS of homogenized brain were plated in duplicate onto YPD agar plates. Culture plates were incubated at 37° C. for 48 hours, after which the CFU were counted and the number of CFU per gram of brain tissue was calculated. The method was sensitive for detection of >10 CFU/g. The culture-negative plates were counted as having 0 CFU/g. […]

| SMILES | Median survival (C. neoformans strain H99 [1]) | Median survival (C. neoformans strain H99 [2]; oral 250 mg/kg/day in water) | Number of CFU/g of Brain (C. neoformans strain H99 [3]) | Median survival (C. neoformans strain H99 [2]; PO BID 25 mg/kg/day) |
| --- | --- | --- | --- | --- |
| Nc1[nH]c(=O)ncc1F [5-Flucytosine] | 34 days | 47 days |  |  |
| OC(Cn1cncn1)(Cn1cncn1)c1ccc(F)cc1F [Fluconazole] |  |  | 4,200,000 CFU/g and 4,300,000 CFU/g and 3,900,000 CFU/g and 6,800,000 CFU/g and 11,300,000 CFU/g | 53 days |
